Article PMC3984052 (Bioorganic & medicinal chemistry, 2014)

What was measured:
[1] = in vivo; for Tolerability after repeated dosing: mouse
[2] = tested on: PrP^C on the cell surface of human T98G glioblastoma cells; format: cell-based; settings: EC50 ratio

Row | SMILES | Brain concentration relative to the EC50 value determined by ELISA ([1]; female, CD-1, mouse) | Tolerability after repeated dosing [1] | Potency relative to the bromo analog (IND61769) [2]
1 | COc1ccc(Cl)cc1C(=O)N1CCN(c2cccc(Cl)c2)CC1 [IND30802] | 100 × | well tolerated | 
2 | NC(=O)c1ccccc1NC(=O)c1cccnc1N1CCCCC1 [IND87406] |  | well tolerated | 
3 | O=C(Cc1ccc(-c2ccccc2)cc1)NCc1ccccc1 [IND116065] |  |  | 5 fold
